Laboratory results from US20230192765A1, “PEPTIDES TARGETING SHP2 AND USES THEREOF” (UNIVERSITÀ DEGLI STUDI DI ROMA "TOR VERGATA", priority 2020, published 2023).
One block for each molecule: values may come before it. *1 amine or outer side, *2 acyl side, *3 side chain or, on linkers, in order; H or OH if unused. Where a SMILES comes first, the peptide text is derived from it. [ ]: non-standard residue; d: D form. 5,6‑carboxyfluorescein = CF, 5,6-carboxyfluorescein label; CF = 5,6-carboxyfluorescein, N-terminal label; pY = N[C@@H](Cc1ccc(OP(=O)(O)O)cc1)C(=O)O; Cysteamide = C(CS[*:3])N[*:1]

What was measured:
NIH3T3 cells = experiment: Peptide toxicity in the cell uptake experiments (Sytox); type: cell-based; conditions: Pep1 at 10 µM
Experimental: Cell viability in the FACS experiment was determined by using Sytox fluorescence.
Cells were incubated for different times and then washed, collected and stained with SYTOX blue (1 mM, Invitrogen™) to identify the viable population and the green fluorescence of CFP9W5 was recordered to measure peptide uptake. Data were analysed with Kaluza Analysis Software (Beckman Coulter).

N-SH2 domain of SHP2 [1] = molecular target: T1, N-SH2 domain of SHP2 (Homo sapiens, UniProt Q06124); experiment: Fluorescence anisotropy displacement assay; type: binding; conditions: for effect of sequence length on the binding affinity: [CF-P9]=1.0 nM, [N-SH2]= 40 nM, relative to P9
T1 construct: constructs of the N-SH2 (residues 2-111), C-SH2 (109-217) and PTP (212-528) domains; His6 (esaHis); made in house; host or cells: E. coli (DE3) Rosetta2
T1 sequence (Q06124 2-111): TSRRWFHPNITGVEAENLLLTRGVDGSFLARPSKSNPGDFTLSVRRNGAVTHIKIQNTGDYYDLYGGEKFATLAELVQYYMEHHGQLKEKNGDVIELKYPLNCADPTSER

[2] = molecular target: T2, SHP2 PTP domain (SHP2 construct lacking the N-SH2 domain) (Homo sapiens, UniProt Q06124); experiment: Malachite green phosphatase assay, dephosphorylation of phosphopeptides; type: biochemical; conditions: phosphopeptide 100 µM; enzyme 95 nM
T2 construct: the isolated PTP domain preceded by the C-SH2 domain (residues 105-528); His6 (esaHis); made in house; host or cells: E. coli (DE3) Rosetta2
T2 sequence (Q06124 105-528): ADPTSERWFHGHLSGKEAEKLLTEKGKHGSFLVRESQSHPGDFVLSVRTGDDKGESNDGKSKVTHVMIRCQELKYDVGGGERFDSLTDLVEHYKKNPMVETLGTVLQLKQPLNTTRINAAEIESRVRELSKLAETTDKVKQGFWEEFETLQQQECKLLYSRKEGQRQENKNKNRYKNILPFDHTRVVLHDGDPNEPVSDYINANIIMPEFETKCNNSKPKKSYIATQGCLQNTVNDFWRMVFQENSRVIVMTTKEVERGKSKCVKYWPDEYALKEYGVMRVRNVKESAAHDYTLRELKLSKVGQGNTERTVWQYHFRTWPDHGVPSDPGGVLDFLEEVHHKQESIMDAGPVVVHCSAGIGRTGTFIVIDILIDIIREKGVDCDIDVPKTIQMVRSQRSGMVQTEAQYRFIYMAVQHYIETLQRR
Experimental: A SHP2 construct lacking the N-SH2 domain (i.e. the first 104 residues) was used at a 95 nM concentration. Phosphopeptides were added at a 100 µM concentration and the phosphate released was measured at different times. From the linear region of the phosphate versus time curve, the variation in absorbance at 655 nm in 1 min, due to phosphate released, was calculated and plotted.
The ability of SHP2 to dephosphorylate the phosphopeptides was evaluated through a malachite green phosphatase assay (PTP assay kit 1 Millipore, MA, USA). The BTAM peptide and the following monophosphorylated peptides derived from known SHP2 substrates were used for comparison: DKQVEpYLDLDL (SEQ ID NO:6) (GAB1Y657), EEENIpYSVPHD (SEQ ID NO:7) (p190A/RhoGAPY1105), and VDADEpYLIPQQ (SEQ ID NO:8) (EGFRY1016) (Primm) [Sun et al., 2009; Ren et al., 2011]. SHP2Δ104 or PTP (2.38 pmol) were incubated with 100 µM of each phosphopeptide (total volume 25 µl) for different times. The reaction was stopped by adding 100 µl of malachite green solution. After 15 min, absorbance was read at 655 nm using a microplate reader, and compared with a phosphate standard curve to determine the release of phosphate. Data obtained in the linear region of the curve were normalized on the reaction time (1 min).

N-SH2 domain of SHP2 [3] = molecular target: T1, N-SH2 domain of SHP2; experiment: Fluorescence anisotropy direct binding assay, N-SH2 domain; conditions: for standard free energy of binding: assuming a 1 M standard state
[4] = molecular target: N-SH2 domain of SHP2 (residues 2-111), recombinant (human) (UniProt Q06124); experiment: fluorescence anisotropy direct binding, labelled peptide titrated with protein
[5] = molecular target: T3, N-SH2 domain of SHP2 (residues 2-111), recombinant (human, UniProt Q06124 2-111); experiment: as above
T3 construct: range 2-111; Expressed in E. coli from pET-26b and purified on Ni-NTA
T3 sequence (looked up): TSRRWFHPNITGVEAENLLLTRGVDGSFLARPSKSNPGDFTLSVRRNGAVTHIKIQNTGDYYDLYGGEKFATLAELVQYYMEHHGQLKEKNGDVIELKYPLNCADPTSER

Molecule: CC(=O)N[C@@H](CCCCN)C(=O)N[C@@H](CCC(=O)O)C(=O)N[C@H](C(=O)N[C@@H](Cc1c[nH]c2ccccc12)C(=O)N[C@@H](Cc1c[nH]c2ccccc12)C(=O)N[C@@H](CCC(=O)O)C(=O)N[C@H](C(=O)N[C@@H](Cc1c[nH]c2ccccc12)C(=O)N[C@@H](Cc1c[nH]c2ccccc12)C(=O)N[C@H](C(=O)N[C@@H](CCC(=O)O)C(=O)N[C@@H](Cc1c[nH]c2ccccc12)C(=O)N[C@@H](CO)C(=O)N[C@@H](CCC(N)=O)C(=O)N1CCC[C@H]1C(=O)N[C@@H](CCCCN)C(=O)N[C@@H](CCCCN)C(=O)N[C@@H](CCCCN)C(=O)N[C@@H](CCCNC(=N)N)C(=O)N[C@@H](CCCCN)C(=O)N[C@H](C(=O)NCCS)C(C)C)[C@@H](C)O)[C@@H](C)O)[C@@H](C)O [Pep1, reference compound] (Ac-KETWWETWWTEWSQPKKKRKV-Cysteamide)
toxicity (NIH3T3 cells): negligible

IC50 (N-SH2 domain of SHP2 [1]): 47 ± 4 nM
Ki (N-SH2 domain of SHP2 [1]): 25 ± 4 nM
effect of sequence length on the binding affinity (N-SH2 domain of SHP2 [1]): No significant loss in affinity
Molecule: CC[C@H](C)[C@H](NC(=O)[C@H](Cc1ccc(OP(=O)(O)O)cc1)NC(=O)[C@H](CC(N)=O)NC(=O)[C@H](CC(C)C)NC(C)=O)C(=O)N[C@@H](CC(=O)O)C(=O)N[C@@H](CC(C)C)C(=O)N[C@@H](CC(=O)O)C(=O)N[C@@H](CC(C)C)C(N)=O [Peptide P8, LN-pY-IDLDL] (Ac-LN[pY]IDLDL-NH2)
dephosphorylation by SHP2 [2]: dephosphorylation was indeed observed, although to a lower extent than for other phosphopeptides

IC50 (N-SH2 domain of SHP2 [1]): 11 ± 1 nM
Ki (N-SH2 domain of SHP2 [1]): 5 ± 2 nM
Molecule: CC[C@H](C)[C@H](NC(=O)[C@H](Cc1ccc(OP(=O)(O)O)cc1)NC(=O)[C@H](CC(N)=O)NC(=O)[C@H](CC(C)C)NC(C)=O)C(=O)N[C@@H](CC(=O)O)C(=O)N[C@@H](CC(C)C)C(=O)N[C@@H](CCC(=O)O)C(=O)N[C@@H](Cc1c[nH]c2ccccc12)C(N)=O [Peptide P8E4W5, LN-pY-IDLEW] (Ac-LN[pY]IDLEW-NH2)

IC50 (N-SH2 domain of SHP2 [1]): 16 ± 1 nM
Ki (N-SH2 domain of SHP2 [1]): 9 ± 2 nM
Molecule: CC[C@H](C)[C@H](NC(=O)[C@H](Cc1ccc(OP(=O)(O)O)cc1)NC(=O)[C@H](CC(N)=O)NC(=O)[C@H](CC(C)C)NC(C)=O)C(=O)N[C@@H](CC(=O)O)C(=O)N[C@@H](CC(C)C)C(=O)N[C@@H](CC(=O)O)C(=O)N[C@@H](Cc1ccccc1)C(N)=O [Peptide P8F5, LN-pY-IDLDF] (Ac-LN[pY]IDLDF-NH2)

Molecule: CC[C@H](C)[C@H](NC(=O)[C@H](Cc1ccc(OP(=O)(O)O)cc1)NC(=O)[C@H](CC(N)=O)NC(=O)[C@H](CC(C)C)NC(C)=O)C(=O)N[C@@H](CC(=O)O)C(=O)N[C@@H](CC(C)C)C(=O)N[C@@H](CC(=O)O)C(=O)N[C@@H](Cc1c[nH]c2ccccc12)C(N)=O [Peptide P8W5, LN-pY-IDLDW]
dephosphorylation by SHP2 [2]: dephosphorylation was indeed observed, although to a lower extent than for other phosphopeptides

standard free energy of binding (N-SH2 domain of SHP2 [3]): -7.07 ± 0.048 kcal/mol
affinity lower than phosphorylated peptide (N-SH2 domain of SHP2 [3]; unphosphorylated vs phosphorylated labeled peptide): approximately 100 times
Molecule: CF-GLN- Y-IDLDL ({5,6‑carboxyfluorescein}-GLNYIDLDL-NH2) [CF-P9Y0]

standard free energy of binding (N-SH2 domain of SHP2 [3]): -9.94 ± 0.024 kcal/mol
Molecule: CF-GLN-pY-IDLDL ({5,6‑carboxyfluorescein}-GLN[pY]IDLDL-NH2) [CF-P9]

Kd [4]: 8.2 nM
Molecule: CF-P9E4W5 (CF-GLN-pY-IDLEW) (peptide)

Molecule: N-pY-IDLDL (Ac-N[pY]IDLDL-NH2; SMILES CC[C@H](C)[C@H](NC(=O)[C@H](Cc1ccc(OP(=O)(O)O)cc1)NC(=O)[C@H](CC(N)=O)NC(C)=O)C(=O)N[C@@H](CC(=O)O)C(=O)N[C@@H](CC(C)C)C(=O)N[C@@H](CC(=O)O)C(=O)N[C@@H](CC(C)C)C(N)=O) [Peptide P7]
effect of sequence length on the binding affinity (N-SH2 domain of SHP2 [1]): drastic perturbation of complex stability

Kd [5]: 53 nM
Molecule: {CF}-GLN[pY]IDLDL-NH2 [CF-P9 (CF-GLN-pY-IDLDL), fluorescently labeled IRS-1 pY1172 peptide analog]
